Reference: article PMC4946153 (Cardiovascular Diabetology, 2016)
Like-named read-outs stand apart in the source and are kept apart here.

How the values were obtained:
[1] = system: H9c2-E2 cells (H9c2 overexpressing the human insulin receptor); experiment: Caspase 3/7 activity assay in H9c2-E2 cells; assay type: cell-based, rat; conditions: for prevention of H2O2-induced caspase 3/7 activation (in words): 100 nM + 800 µM H2O2, 2 h
Procedure: (§1) The cardiac mouse cell line HL-1, a cell line derived from the AT-1 mouse atrial cardiomyocyte tumour lineage, was kindly provided by Dr. W.C. Claycomb (Louisiana State University, New Orleans, LA, USA). HL-1 cells were cultivated in Claycomb medium containing 10 % fetal calf serum (FCS), 100 µM norepinephrine and 4 mM L-glutamine (all from Sigma-Aldrich, Munich, Germany) on gelatine/fibronectin coated plates. H9c2 cells (ATCC CRL-1446), stably transfected with the human IR in our laboratory (H9c2-E2) were cultivated in DMEM, low glucose containing 10 % FCS, 1 % non–essential amino acids and 600 µg/ml G418 (all from Invitrogen, Carlsbad, CA, USA). Commercially available iPS-derived human cardiomyocytes (Cor.4U®) (Axiogenesis, Cologne, Germany) were cultured in Cor.4U® Complete Medium containing 10 % FCS on fibronectin–coated 96-well E-Plate (Acea Biosciences, San Diego, CA, USA). The medium was changed twice daily. All cells were incubated at 37 °C with 5 % CO2 in a humidified incubator.
Caspase 3/7 activity was then measured by the caspase-Glo® 3/7 assay system (Promega, Madison, Wisconsin, USA) as described in the manual. After 2 h incubation period caspase 3/7 activity was analysed by measuring the luminescence in an Infinite 200 plate reader (Tecan, Männedorf, Switzerland).

[2] = system: Cor.4U human iPSC-derived cardiomyocytes; experiment: Beating-rate by impedance measurement in human Cor.4U cells; assay type: cell-based; conditions: 500 nM; for time to maximum beating-rate / beating-rate, area under the curve for 6 h: n = 4; for beating-rate, area under the curve for 6 h: vs. basal
Procedure: as §1
Cor.4U® cardiomyocytes were seeded at a density of 30,000 cells per well. From day 3 on the cells were cultured in Iscove’s Basal Medium containing 1 % GlutaMAX supplement (both Life Technologies, Carlsbad, CA, USA) and 2 µg/ml Ciprobay (Bayer, Leverkusen, Germany). […] Impedance of each well was measured with the RTCA Cardio xCELLigence Analyser (Acea Biosciences, San Diego, CA, USA) during the whole experiment. Beating-rate and cell index were analysed by RTCA cardio software (Acea Biosciences, San Diego, CA, USA).

[3] = system: adult rat ventricular cardiomyocytes (ARVM); experiment: Contractility of paced adult rat ventricular cardiomyocytes; assay type: cell-based; conditions: 100 nM, 5 min pre-treatment, ARVM paced 1 Hz, 15 V, 0.5 ms, 37 °C; vs. control; n = 4
Procedure: Adult rat ventricular cardiomyocytes (ARVM) were isolated from wild-type Lewis rats (Lew/Crl) as previously described. […] Subsequently, ARVM were cultivated over-night in DMEM/F12 containing 33 µM biotin and 17 µM pantothenate (Invitrogen, Carlsbad, CA, USA). […] Furthermore, untreated ARVM or ARVM treated with 10 nM isoproterenol (Sigma-Aldrich, Munich, Germany) were immediately measured. ARVM were paced with bipolar pulses in a contractility and fluorescence system (IonOptix, Milton, MA, USA) at 15 V, 1 Hz, 0.5 ms, at 37 °C for up to 10 min and 10–14 contractions of at least 10 rod–shaped ARVM per condition were recorded. Sarcomeric shortening, shortening rate and re-lengthening rate were calculated using the IonWizard software (IonOptix, Milton, MA, USA). […] Afterwards, ARVM were treated as described above. […] Microscopic pictures were taken randomly with at least 10 pictures per condition. As a positive control 200 µM H2O2 was utilised. For each condition at least 400 cells were counted per experiment.

[4] = system: insulin receptor (membrane embedded, M-IR; CHO-cells overexpressing the IR); experiment: Competition binding, membrane embedded IR (M-IR)
Procedure: Briefly, CHO-cells overexpressing the IR were collected and re-suspended in ice-cold 2.25 STM buffer (2.25 M sucrose, 5 mM Tris–HCl pH 7.4, 5 mM MgCl2, complete protease inhibitor) and disrupted using a Dounce homogenizer followed by sonication. The homogenate was overlaid with 0.8 STM buffer (0.8 M sucrose, 5 mM Tris–HCl pH 7.4, 5 mM MgCl2, complete protease inhibitor) and ultra-centrifuged for 90 min at 100,000g. Plasma membranes at the interface were collected and washed twice with phosphate buffered saline (PBS). The final pellet was re-suspended in dilution buffer (50 mM Tric-HCl pH 7.4, 5 mM MgCl2, complete protease inhibitor) and again homogenised with a Dounce homogenizer. Competition binding experiments were performed in a binding buffer (50 mM Tris–HCl, 150 mM NaCl, 0.1 % BSA, complete protease inhibitor, adjusted to pH 7.8) in 96-well microplates. In each well 2 µg isolated membrane were incubated with 0.25 mg wheat germ agglutinin polyvinyltoluene polyethylenimine scintillation proximity assay (SPA) beads. […] The radioactivity was measured at equilibrium in a microplate scintillation counter (Wallac Microbeta, Freiburg, Germany).
(§2) Results are expressed as mean values ± SEM of at least three independent experiments. For statistical analysis Graphpad Prism v5.00 (Graphpad Software, San Diego, CA, USA) was used. One-way ANOVA was performed to determine significance between conditions, with level of significance chosen at p < 0.05. In case of IC50 determinations for binding, a non-parametric Kruskal–Wallis testing was performed, again with level of significance chosen at p < 0.05.

[5] = system: Akt(Thr308) phosphorylation in HL-1 cells; experiment: Akt(Thr308) phosphorylation in HL-1 cells, Western blot; assay type: cell-based, mouse; conditions: n = 3
Procedure: as §1

[6] = system: cardiovascular outcome in patients; conditions: DEVOTE interim analysis; ref [16], [17]; cited from earlier work
Excerpt: (§3) So far, finalised clinical data is only available for IGla, whereas for IDeg the investigation is still ongoing.

[7] = system: Akt(Ser473) phosphorylation in HL-1 cells; experiment: Akt(Ser473) phosphorylation in HL-1 cells, Western blot; assay type: cell-based, mouse; conditions: for Akt(Ser473) phosphorylation level: vs. Ins and other analogues
Procedure: as §1

[8] = target: insulin receptor (solubilised, S-IR); experiment: Competition binding, solubilised IR (S-IR)
Procedure: Binding on a freshly solubilised IR preparation (S-IR) was performed as previously described with some modifications. Aliquots of membranes were incubated at 4 °C for 30 min in a solubilisation buffer (20 mM HEPES–NaOH, 100 mM NaCl, 10 mM MgSO4, 1 % (w/v) n-Dodecyl-ß-D-maltoside (Sigma-Aldrich, Munich, Germany), adjusted to pH 7.8 and Complete TM Protease Inhibitor cocktail). Thereafter, ultra-centrifugation was performed at 100,000g for 30 min and 4 °C to remove non–solubilised debris. Protein concentration in the supernatant was adjusted to 0.15 mg/ml with binding buffer (100 mM HEPES–NaOH, 100 mM NaCl, 10 mM MgSO4, 0.025 % (v/v) Tween-20, adjusted to pH 7.8 and complete TM protease inhibitor cocktail). To streptavidin SPA beads (5 mg in […] binding buffer), 50 µl of an anti-IR alpha-antibody 83-7 (Abcam, Cambridge, UK) was added. After incubation for 30 min, SPA beads were once washed and finally re-suspended in 500 µl binding buffer. A solution of solubilised receptor (1 ml, 0.15 mg/ml) was added and incubated for further 60 min, before washing and resuspension in 1.5 ml.
as §2

HL-1 cells = experiment: 2-deoxy-D-glucose uptake in HL-1 cardiomyocytes; assay type: cell-based, mouse; conditions: 200 nM, 60 min
Procedure: as §1
HL-1 cells were seeded at a density of 400,000 cells per well in a 12-well plate. […] Incorporated glucose was measured by scintillation counting of the cell lysates in a liquid scintillation counter (Beckman Coulter, Pasadena, CA, USA). Values were corrected for non-specific uptake as measured by incubation with L-[^14C]glucose (PerkinElmer, Waltham, MA, USA).

[9] = system: cardiovascular effects in patients; conditions: ORIGIN trial, ref [15]; cited from earlier work
Excerpt: as §3

[10] = 200 nM, 60 min, HL-1, normalised to tubulin, n = 4-5

OO [H2O2, reference compound]
induction of caspase 3/7 activity ([1]; 800 µM H2O2, 2 h, H9c2-E2, vs. basal, n = 5-6): 4.8 fold | induction of caspase 3/7 activity (in words) ([1]; H2O2 challenge, H9c2-E2): fivefold increase

insulin
time to maximum beating-rate [2]: 10 min | beating-rate, area under the curve for 6 h [2]: significant increase | increase in departure velocity (shortening rate) [3]: ~ twofold | increase in return velocity (re-lengthening rate) [3]: ~ threefold | increase in sarcomeric shortening [3]: ~ 2.5 fold | decrease of caspase 3/7 activity compared to H2O2 treatment alone ([1]; 100 nM insulin + 800 µM H2O2, 2 h, H9c2-E2, n = 5-6): up to 70.3%

insulin degludec [IDeg]
IR affinity (in words) [4]: very low binding affinities | IC50 ([4]; 2 µg isolated membrane, WGA-PVT-PEI SPA beads, 100 pM [125I]-human Ins, pH 7.8, 12 h at 23 °C, mean ± SEM, at least four independent experiments in quadruplicates, read-out: IR affinity IC50): 19.6 ± 1.1 nM | IR affinity (in words) ([4]; listed as Insulin degludec): significant lower IR affinity | IC50 fold higher compared to Ins ([4]; ratio of IC50 vs. Ins): 23.6 fold | binding affinity compared to Ins ([4]; relative to Ins): ~ 4% | onset of action on beating-rate [2]: slower onset of action | time to maximum beating-rate [2]: 20 min | beating-rate, area under the curve for 6 h [2]: significant increase | increase in departure velocity (shortening rate) [3]: ~ twofold | increase in return velocity (re-lengthening rate) [3]: ~ threefold | increase in sarcomeric shortening [3]: ~ 2.5 fold | prevention of H2O2-induced caspase 3/7 activation (in words) ([1]; H9c2-E2): same potency to prevent caspase 3/7 activation as Ins | Akt(Thr308) phosphorylation, kinetic ([5]; 200 nM, 5, 10 and 60 min, HL-1, same kinetic as for Akt(Ser473)): The same kinetic was observed | Akt(Thr308) phosphorylation ([5]; 200 nM, 5- and 10-min incubation, HL-1, compared to insulin, insulin glargine and M1): lower | major adverse cardiovascular outcome vs IGla [6]: non-inferiority to IGla | Akt(Ser473) phosphorylation level ([7]; 200 nM, 5 min, HL-1, normalised to tubulin, n = 4-5): significantly lower | Akt(Ser473) phosphorylation level ([7]; 200 nM, 10 min, HL-1, normalised to tubulin, n = 4-5): significantly lower | Akt(Ser473) phosphorylation level compared to IGla [7, 10]: still significantly lower | Akt(Ser473) phosphorylation level compared to Ins and IGlaM1 [7, 10]: similar | Akt(Ser473) phosphorylation ([7]; HL-1, 5- and 10-min incubation, compared to insulin, insulin glargine and M1): lower | IC50 ([8]; anti-IR antibody 83-7 SPA, 100 pM [125I]-insulin, pH 7.8, 12 h at 23 °C, mean ± SEM, at least six times on different days, quadruplicates, read-out: IR affinity IC50): 3.12 ± 0.42 nM | IC50 fold higher compared to Ins ([8]; ratio of IC50 vs. Ins): 5.4 fold | binding affinity relative to human insulin ([8]; this paper): ~ 18.6% | glucose uptake, comparison between insulins (HL-1 cells): no difference

insulin glargine [IGla]
time to maximum beating-rate [2]: 10 min | beating-rate, area under the curve for 6 h [2]: significant increase | increase in departure velocity (shortening rate) [3]: ~ twofold | increase in return velocity (re-lengthening rate) [3]: ~ threefold | increase in sarcomeric shortening [3]: ~ 2.5 fold | prevention of H2O2-induced caspase 3/7 activation (in words) ([1]; H9c2-E2): same potency to prevent caspase 3/7 activation as Ins | cardiovascular effects vs standard care treatment [9]: non-inferiority | glucose uptake, comparison between insulins (HL-1 cells): no difference
